A short description of data set [1]: pKa of amine lipid by TNS fluorescence. The conditions noted are these: probe TNS (6-(p-toluidino)-2-naphthalenesulfonic acid sodium salt), unformulated amine lipid in ethanol, sodium phosphate buffers -9.0. In kind it is physicochemical. Here is the method:
The pKa of each amine lipid was determined according to the method in Jayaraman, et al. (Angewandte Chemie, 2012) with the following adaptations. The pKa was determined for unformulated amine lipid in ethanol. Lipid stock solutions (2.94 mM) were diluted into Sodium Phosphate Buffers (0.1 M, Boston Bioproducts) of different pH (pH-range: 4.5-9.0) yielding a final lipid concentration of approx. 100 μM. The test samples were supplemented with TNS {6-(p-Toluidino)-2-naphthalenesulfonic acid sodium salt}, incubated and the fluorescence intensity was measured using excitation and emission wavelengths of 321 nm and 448 nm, respectively. The recorded data were normalized and the respective pKa values were derived from sigmoidal fitting.

The nature of data set [2]: LNP average particle size and polydispersity by dynamic light scattering. In kind it is physicochemical. The conditions noted are these: LNP with the compound as amine lipid. The source says:
The LNPs have a size of about 1 to about 1,000 nm, about 10 to about 500 nm, about 20 to about 500 nm, in a sub-embodiment about 50 to about 400 nm, in a sub-embodiment about 50 to about 300 nm, in a sub-embodiment about 50 to about 200 nm, and in a sub-embodiment about 50 to about 150 nm, and in another sub-embodiment about 60 to about 120 nm. Preferably, the LNPs have a size from about 60 nm to about 100 nm. The average sizes (diameters) of the fully formed LNP, may be measured by dynamic light scattering on a Malvern Zetasizer. The LNP sample is diluted in phosphate buffered saline (PBS) so that the count rate is approximately 200-400 kcps. The data is presented as a weighted average of the intensity measure.
In some embodiments, the LNPs have a size of about 75 to about 120 nm. In some embodiments, the LNPs have a size of about 75 to about 100 nm. Unless indicated otherwise, all sizes referred to herein are the average sizes (diameters) of the fully formed nanoparticles, as measured by dynamic light scattering on a Malvern Zetasizer. The nanoparticle sample is diluted in phosphate buffered saline (PBS) so that the count rate is approximately 200-400 kcps. The data is presented as a weighted-average of the intensity measure (Z-average diameter).
Dynamic Light Scattering (“DLS”) is used to characterize the polydispersity index (“pdi”) and size of the LNPs of the present disclosure. DLS measures the scattering of light that results from subjecting a sample to a light source. PDI, as determined from DLS measurements, represents the distribution of particle size (around the mean particle size) in a population, with a perfectly uniform population having a PDI of zero. Electropheretic light scattering is used to characterize the surface charge of the LNP at a specified pH. The surface charge, or the zeta potential, is a measure of the magnitude of electrostatic repulsion/attraction between particles in the LNP suspension. Asymmetric-Flow Field Flow Fractionation—Multi-Angle Light Scattering (AF4-MALS) is used to separate particles in the composition by hydrodynamic radius and then measure the molecular weights, hydrodynamic radii and root mean square radii of the fractionated particles. […] Nanoparticle tracking analysis (NTA, Malvern Nanosight) can be used to determine particle size distribution as well as particle concentration. LNP samples are diluted appropriately and injected onto a microscope slide. A camera records the scattered light as the particles are slowly infused through field of view. After the movie is captured, the Nanoparticle Tracking Analysis processes the movie by tracking pixels and calculating a diffusion coefficient. This diffusion coefficient can be translated into the hydrodynamic radius of the particle. The instrument also counts the number of individual particles counted in the analysis to give particle concentration.
LNP compositions are analyzed for average particle size, polydispersity index (pdi), total RNA content, encapsulation efficiency of RNA, and zeta potential. LNP compositions may be further characterized by lipid analysis, AF4-MALS, NTA, and/or cryo-EM. Average particle size and polydispersity are measured by dynamic light scattering (DLS) using a Malvern Zetasizer DLS instrument. LNP samples were diluted with PBS buffer prior to being measured by DLS. Z-average diameter which is an intensity-based measurement of average particle size was reported along with number average diameter and pdi. A Malvern Zetasizer instrument is also used to measure the zeta potential of the LNP. Samples are diluted 1:17 (50 μL into 800 μL) in 0.1×PBS, pH 7.4 prior to measurement.

Data set [3] in a line: RNA encapsulation efficiency of LNP (Ribogreen fluorescence assay). Format: physicochemical. To be noted: LNP with the compound as amine lipid. The procedure:
A fluorescence-based assay (Ribogreen®, ThermoFisher Scientific) is used to determine total RNA concentration and free RNA. Encapsulation efficiency is calculated as (Total RNA—Free RNA)/Total RNA. LNP samples are diluted appropriately with 1× TE buffer containing 0.2% Triton-X 100 to determine total RNA or 1× TE buffer to determine free RNA. Standard curves are prepared by utilizing the starting RNA solution used to make the compositions and diluted in 1× TE buffer+/−0.2% Triton-X 100. Diluted RiboGreen® dye (according to the manufacturer's instructions) is then added to each of the standards and samples and allowed to incubate for approximately 10 minutes at room temperature, in the absence of light. A SpectraMax M5 Microplate Reader (Molecular Devices) is used to read the samples with excitation, auto cutoff and emission wavelengths set to 488 nm, 515 nm, and 525 nm respectively. Total RNA and free RNA are determined from the appropriate standard curves.
Encapsulation efficiency is calculated as (Total RNA−Free RNA)/Total RNA. The same procedure may be used for determining the encapsulation efficiency of a DNA-based cargo component. For single-strand DNA, Oligreen Dye may be used and for double-strand DNA, Picogreen Dye.

In data set [4] the test system is mouse TTR. The data set can be described thus: Serum TTR ELISA in mice after LNP delivery. Format: in vivo. The conditions noted are these: mouse serum, relative to TSS control of same experiment. Here is the method:
For studies measuring in vivo editing in liver, CD-1 female mice were dosed at 0.1 mpk unless otherwise noted. Animals were euthanized at 6 or 7 days by exsanguinationvia cardiac puncture under isoflourane anesthesia. Liver tissue was collected from each animal for DNA extraction and analysis. Blood was collected into serum separator tubes or into tubes containing buffered sodium citrate for plasma as described herein. Cohorts of mice were measured for editing by Next-Generation Sequencing (NGS).
Blood was collected and the serum was isolated as indicated. The total mouse TTR serum levels were determined using a Mouse Prealbumin (Transthyretin) ELISA Kit (Aviva Systems Biology, Cat. OKIA00111). Briefly, sera were serial diluted with kit sample diluent, e.g. to a final dilution of 10,000-fold and/or 2,500-fold. The diluted sample was then added to the ELISA plates and the assay was then carried out according to directions. Serum TTR data from treatment groups are expressed as a percentage of vehicle control levels.

[5] abbreviates: Expt. 10, composition ratio (mol %) 50/9/38/3 for Cmpnd 49, 50/10/38.5/1.5 for the others.
[6] abbreviates: Expt. 5, composition ratio (mol %) 50/10/38.5/1.5.
[7] abbreviates: Expt. 7, composition ratio (mol %) 50/9/38/3 for Cmpnd 49, 50/10/38.5/1.5 for the others.
[8] abbreviates: Expt. 8, composition ratio (mol %) 50/9/38/3 for Cmpnd 49, 50/10/38.5/1.5 for the others.
Where [9] appears, read: Expt. 6, composition ratio (mol %) 50/9/38/3 for Cmpnd 49, 50/10/38.5/1.5 for the others.

Here are results for 6 compounds from patent US12077483B2, “Modified amine lipids” (Intellia Therapeutics, Inc., priority 2018, dated 2024).

As to `CCCCC/C=C\C/C=C\CCCCCCCC(=O)OCC(COC(=O)CCCCCCC/C=C\C/C=C\CCCCC)OC(=O)CCC(CCCCCCCC)OC(=O)NCCN1CCCCC1` (centres unmarked) [Compound 94, 2-((4-(((2-(piperidin-1-yl)ethyl)carbamoyl)oxy)dodecanoyl)oxy)propane-1,3-diyl (9Z,9′Z,12Z,12′Z)-bis(octadeca-9,12-dienoate)], the pKa in data set [1] came out at 5.8. In data set [2] (setting [5]), the “Num Ave Size (nm)” value worked out at 53 nm, the PDI was found to be 0.06 and the “Z-Ave Size (nm)” value was 70 nm. In addition, in data set [3] (setting [5]), the Encapsulation (%) was 98%.

For `CCCCC/C=C\C/C=C\CCCCCCCC(=O)OCC(COC(=O)CCCCCCC/C=C\C/C=C\CCCCC)OC(=O)CCC(CCCCCC)OC(=O)NCCN1CCC1` (centres unmarked) [Compound 77, 2-((4-(((2-(azetidin-1-yl)ethyl)carbamoyl)oxy)decanoyl)oxy)propane-1,3-diyl (9Z,9′Z,12Z,12′Z)-bis(octadeca-9,12-dienoate)], the pKa in data set [1] is 7.23. In data set [2] (setting [6]), the “Num Ave Size (nm)” value was determined as 78 nm, the PDI came out at 0.08 and the “Z-Ave Size (nm)” value is given as 104.00 nm. Further, in data set [3] (setting [6]), the “Encapsulation (%)” value is on record as 98%. Moreover, in data set [4] (dose 0.03 mpk), the “Serum TTR % TSS” value was found to be 68.3 % TSS. Moreover, the “Serum TTR % TSS” value in data set [4] (dose 0.1 mpk) is given as 80.6 % TSS.

On to `CCCCC/C=C\C/C=C\CCCCCCCC(=O)OCC(COC(=O)CCCCCCC/C=C\C/C=C\CCCCC)OC(=O)CCC(CCCCCCC)OC(=O)OCCCN1CCCC1` (centres unmarked) [Compound 75, 2-((4-(((3-(pyrrolidin-1-yl)propoxy)carbonyl)oxy)undecanoyl)oxy)propane-1,3-diyl (9Z,9′Z,12Z,12′Z)-bis(octadeca-9,12-dienoate)], for which the pKa in data set [1] turned out to be 6.17. In data set [2] (setting [7]), the “Num Ave Size (nm)” value amounted to 73.46 nm, the PDI is 0.02 and the “Z-Ave Size (nm)” value stood at 89.78 nm. Besides, in data set [3] (setting [7]), the “Encapsulation (%)” value was 98%. Besides, in data set [4] (dose 0.03 mpk), the “Serum TTR % TSS” value is given as 45.098 % TSS. Besides, the “Serum TTR % TSS” value in data set [4] (dose 0.1 mpk) worked out at 11.996 % TSS.

Regarding `CCCCC/C=C\C/C=C\CCCCCCCC(=O)OCC(COC(=O)CCCCCCC/C=C\C/C=C\CCCCC)OC(=O)CCC(CCCCCCCCCC)OC(=O)NCC1CCCN1C` (centres unmarked) [Compound 65, 2-((4-((((1-methylpyrrolidin-2-yl)methyl)carbamoyl)oxy)tetradecanoyl)oxy)propane-1,3-diyl (9Z,9′Z,12Z,12′Z)-bis(octadeca-9,12-dienoate)], in data set [1], the pKa amounted to 6.37. In data set [2] (setting [8]), the “Num Ave Size (nm)” value was 52.04 nm, the PDI came to 0.056 and the “Z-Ave Size (nm)” value is reported as 69.67 nm. Also, the “Encapsulation (%)” value in data set [3] (setting [8]) worked out at 99%. In data set [4] (dose 0.03 mpk), the “Serum TTR % TSS” value was determined as 119.84 % TSS. The “Serum TTR % TSS” value in data set [4] (dose 0.1 mpk) came to 99.22 % TSS.

Turning to `CCCCC/C=C\C/C=C\CCCCCCCC(=O)OCC(COC(=O)CCCCCCC/C=C\C/C=C\CCCCC)OC(=O)CC[C@H](CCCCCCCC)OC(=O)NCCN(C)CC` [Compound 88, 2-(((S)-4-(((2-(ethyl(methyl)amino)ethyl)carbamoyl)oxy)dodecanoyl)oxy)propane-1,3-diyl (9Z,9′Z,12Z,12′Z)-bis(octadeca-9,12-dienoate)], in data set [2] (setting [9]), the “Num Ave Size (nm)” value is listed as 73 nm, the PDI was determined as 0.02 and the “Z-Ave Size (nm)” value is 88.00 nm. The “Encapsulation (%)” value in data set [3] (setting [9]) is 98%. The “Serum TTR % TSS” value in data set [4] (dose 0.03 mpk) is 75.06 % TSS. For the same compound, the “Serum TTR % TSS” value in data set [4] (dose 0.1 mpk) is recorded as 33.45 % TSS.

Take `CCCCC/C=C\C/C=C\CCCCCCCC(=O)OCC(COC(=O)CCCCCCC/C=C\C/C=C\CCCCC)OC(=O)CC[C@@H](CCCCCCCC)OC(=O)NCCN(C)CC` [Compound 87, 2-(((R)-4-(((2-(ethyl(methyl)amino)ethyl)carbamoyl)oxy)dodecanoyl)oxy)propane-1,3-diyl (9Z,9′Z,12Z,12′Z)-bis(octadeca-9,12-dienoate)]: in data set [2] (setting [9]), the “Num Ave Size (nm)” value came out at 63 nm, the PDI stood at 0.06 and the “Z-Ave Size (nm)” value stood at 83.00 nm. The “Encapsulation (%)” value in data set [3] (setting [9]) is 98%. Moreover, in data set [4] (dose 0.03 mpk), the “Serum TTR % TSS” value is listed as 80.21 % TSS. Further, the “Serum TTR % TSS” value in data set [4] (dose 0.1 mpk) amounted to 33.33 % TSS.
